# Columns and labels:
# [1] = tested on: p53 target genes in MT373 tumors; assay: MT373 syngeneic sarcoma model: p21, MDM2, GDF15 (MIC-1) mRNA RT-qPCR in tumors; format: in vivo, mouse; details: for MDM2 mRNA, Fold Change over Vehicle Control / MIC-1 mRNA, Fold Change over Vehicle Control / p21 mRNA, Fold Change over Vehicle Control: MT373 tumors
# Procedure: Purification of RNA: Frozen tumor samples with the required weight were lysed in Buffer RLT with 10 μL/mL of β-mercaptoethanol using a TissueLyser LT. Total RNA was further purified from the lysate using QIAcube with DNase digestion, and RNA concentration was measured with a NanoDrop 2000 Spectrophotometer.
# p21, MDM2, GDF15, and GAPDH Gene Expression: Individual gene expression was analyzed by one-step TaqMan-based real-time RT-qPCR. Purified total RNA was diluted to 2.5 ng/μL in DNase- and RNase-free water, and 10 ng was used for each 20 μL RT-qPCR assay using a LightCycler 96. A QuantiTect Probe RT-PCR Kit was used along with a specific primer/probe set as indicated. LAM-MGB labels were used for genes GAPDH, CDKN1a, MDM2, GDL15, and TRP53. The expression of the reference gene (human GAPDH and/or mouse GAPDH as indicated) in the ratio to the vehicle control was calculated using the ΔCt method with normalization to the total RNA input. The expression of a gene of interest relative to the reference gene was calculated using the ΔCt method, and the expression of a gene of interest relative to the reference gene in the ratio to the vehicle control was calculated using the ΔΔCt method.
# [2] = tested on: MT373 tumors; format: in vivo; details: 75 and 150 mg/kg BID×1 PO
# From the text: Randomization and Study Setup: Implanted animals were monitored for palpable tumors. Eighteen days post implant the animals with palpable tumors had their tumor sizes determined via digital caliper. Mice were selected and randomized into three treatment groups according to tumor size. Average tumor volume (mm^3) and body weight (g) are described in TABLE 17. Treatment began on the eighteenth day post-implant to facilitate twice daily dosing.
# Measurements and Calculation of Tumor Volume: Tumor volume was calculated using the following equation: (longest diameter×shortest diameter^2)/2. Individual tumor volumes and body weight measurements were taken at the final timepoint. The calculation for percent tumor growth inhibition (TGI) is as follows: [1−((Tt−T0/Ct−C0))]×100, where Ct is the mean tumor volume of the vehicle control group at time t, C0 is the mean tumor volume of the vehicle control group at time 0, and T is the mean tumor volume of the treatment group. Tumor regression was determined with the equation [(T0−Tt)/T0]×100 using the same definitions.
compound,measurement,setting,value
"CCn1c(C#CCNc2ccccc2)cc2cc(CNC3CCN(C)CC3)ccc21 [Compound 1, 1-Anilino-3-{1-ethyl-5-[(1-methyl-4-piperidylamino)methyl]-1H-indol-2-yl}-2-propyne]","MDM2 mRNA, Fold Change over Vehicle Control","[1]; 75 mg/kg BIDx1 PO, 8 h",6.16 fold
same,"MIC-1 mRNA, Fold Change over Vehicle Control","[1]; 75 mg/kg BIDx1 PO, 8 h",1.74 fold
same,"p21 mRNA, Fold Change over Vehicle Control","[1]; 75 mg/kg BIDx1 PO, 8 h",5.43 fold
same,"MDM2 mRNA, Fold Change over Vehicle Control","[1]; 75 mg/kg BIDx1 PO, 24 h",2.44 fold
same,"MIC-1 mRNA, Fold Change over Vehicle Control","[1]; 75 mg/kg BIDx1 PO, 24 h",1.14 fold
same,"p21 mRNA, Fold Change over Vehicle Control","[1]; 75 mg/kg BIDx1 PO, 24 h",4.04 fold
same,"MDM2 mRNA, Fold Change over Vehicle Control","[1]; 75 mg/kg BIDx1 PO, 48 h",1.12 fold
same,"MIC-1 mRNA, Fold Change over Vehicle Control","[1]; 75 mg/kg BIDx1 PO, 48 h",0.85 fold
same,"p21 mRNA, Fold Change over Vehicle Control","[1]; 75 mg/kg BIDx1 PO, 48 h",1.43 fold
same,"MDM2 mRNA, Fold Change over Vehicle Control","[1]; 75 mg/kg BIDx1 PO, 72 h",1.08 fold
same,"MIC-1 mRNA, Fold Change over Vehicle Control","[1]; 75 mg/kg BIDx1 PO, 72 h",0.65 fold
same,"p21 mRNA, Fold Change over Vehicle Control","[1]; 75 mg/kg BIDx1 PO, 72 h",1.18 fold
same,"MDM2 mRNA, Fold Change over Vehicle Control","[1]; 75 mg/kg BIDx1 PO, 98 h",1.11 fold
same,"MIC-1 mRNA, Fold Change over Vehicle Control","[1]; 75 mg/kg BIDx1 PO, 98 h",1.05 fold
same,"p21 mRNA, Fold Change over Vehicle Control",[1]; 75 mg/kg BIDx1 PO,0.99 fold
same,"MDM2 mRNA, Fold Change over Vehicle Control","[1]; 75 mg/kg BIDx1 PO, […]",0.85 fold
same,"MIC-1 mRNA, Fold Change over Vehicle Control","[1]; 75 mg/kg BIDx1 PO, […]",0.88 fold
same,"p21 mRNA, Fold Change over Vehicle Control","[1]; 75 mg/kg BIDx1 PO, […]",0.98 fold
same,MDM2 mRNA increase,"[1]; 75 mg/kg BID×1, 8 h",6.2 fold
same,p21 mRNA increase,"[1]; 75 mg/kg BID×1, 8 h",5.4 fold
same,MDM2 mRNA increase,"[1]; 75 mg/kg BID×1, 24 h",2.4 fold
same,p21 mRNA increase,"[1]; 75 mg/kg BID×1, 24 h",4.0 fold
same,"MDM2 mRNA, Fold Change over Vehicle Control","[1]; 150 mg/kg BIDx1 PO, 8 h",8.70 fold
same,"MIC-1 mRNA, Fold Change over Vehicle Control","[1]; 150 mg/kg BIDx1 PO, 8 h",3.07 fold
same,"p21 mRNA, Fold Change over Vehicle Control","[1]; 150 mg/kg BIDx1 PO, 8 h",6.73 fold
same,"MDM2 mRNA, Fold Change over Vehicle Control","[1]; 150 mg/kg BIDx1 PO, 24 h",6.88 fold
same,"MIC-1 mRNA, Fold Change over Vehicle Control","[1]; 150 mg/kg BIDx1 PO, 24 h",2.29 fold
same,"p21 mRNA, Fold Change over Vehicle Control","[1]; 150 mg/kg BIDx1 PO, 24 h",9.61 fold
same,"MDM2 mRNA, Fold Change over Vehicle Control","[1]; 150 mg/kg BIDx1 PO, 48 h",1.43 fold
same,"MIC-1 mRNA, Fold Change over Vehicle Control","[1]; 150 mg/kg BIDx1 PO, 48 h",1.14 fold
same,"p21 mRNA, Fold Change over Vehicle Control","[1]; 150 mg/kg BIDx1 PO, 48 h",1.87 fold
same,"MDM2 mRNA, Fold Change over Vehicle Control","[1]; 150 mg/kg BIDx1 PO, 72 h",1.33 fold
same,"MIC-1 mRNA, Fold Change over Vehicle Control","[1]; 150 mg/kg BIDx1 PO, 72 h",0.93 fold
same,"p21 mRNA, Fold Change over Vehicle Control","[1]; 150 mg/kg BIDx1 PO, 72 h",1.33 fold
same,"MDM2 mRNA, Fold Change over Vehicle Control","[1]; 150 mg/kg BIDx1 PO, 98 h",1.12 fold
same,"MIC-1 mRNA, Fold Change over Vehicle Control","[1]; 150 mg/kg BIDx1 PO, 98 h",0.53 fold
same,"p21 mRNA, Fold Change over Vehicle Control",[1]; 150 mg/kg BIDx1 PO,1.01 fold
same,"MDM2 mRNA, Fold Change over Vehicle Control","[1]; 150 mg/kg BIDx1 PO, […]",1.16 fold
same,"MIC-1 mRNA, Fold Change over Vehicle Control","[1]; 150 mg/kg BIDx1 PO, […]",1.00 fold
same,"p21 mRNA, Fold Change over Vehicle Control","[1]; 150 mg/kg BIDx1 PO, […]",0.85 fold
same,MDM2 mRNA increase,"[1]; 150 mg/kg BID×1, 8 h",8.7 fold
same,MIC-1 mRNA increase,"[1]; 150 mg/kg BID×1, 8 h",3.07 fold
same,p21 mRNA increase,"[1]; 150 mg/kg BID×1, 8 h",6.7 fold
same,MDM2 mRNA increase,"[1]; 150 mg/kg BID×1, 24 h",6.9 fold
same,MIC-1 mRNA increase,"[1]; 150 mg/kg BID×1, 24 h",2.29 fold
same,p21 mRNA increase,"[1]; 150 mg/kg BID×1, 24 h",9.6 fold
same,tolerability,[2],well tolerated
